In ChEMBL document CHEMBL3507680, “University of Dundee, Gates Library screen for HepG2 cell viability”:

Assay: Human HepG2 cell viability assay in 384 well format
Assay type: toxicity, cell-based
Set-up: dose 125 nL, time 70.5 hour; concentration not given beside the values
Conditions: HepG2 cells, read-out: Inhibition

Question: Which cytotoxicity at 70.5 h does the source give for `O=C(NC[C@]12COC[C@H]1CN(Cc1cccc(F)c1)C2)c1ccco1` here?
Answer: -12.4%

Question: With `Cc1ccc2c(n1)N(CCN(C)C)CCN(C(=O)c1ccsc1)C2` as the compound, how does the cytotoxicity at 70.5 h read?
Answer: -5.53%

Question: Which cytotoxicity at 70.5 h does the source give for `COC(=O)CCC(=O)N1CCC2(CN(Cc3cccc(Cl)c3)C2)C1` here?
Answer: 6.9%

Question: For `O=C(Cc1ccc(F)cc1)N1CCn2c(Cn3cncn3)cnc2C1`, which cytotoxicity at 70.5 h is on record?
Answer: -1.65%

Question: With `CCC(O)C1CCN(C(=O)Nc2nc(-c3ccccc3)ns2)CC1` (configuration not stated) as the compound, how does the cytotoxicity at 70.5 h read?
Answer: 13.7%

Question: For `Cc1ccsc1CCNC(C)C(=O)NC1CCCC1` (configuration not stated), which cytotoxicity at 70.5 h is on record?
Answer: -10.7%

Question: With `O=C1CCCN1CCc1noc(-c2ccsc2)n1` as the compound, how does the cytotoxicity at 70.5 h read?
Answer: -7.91%

Question: For `CN1CCCC2(CCN(c3cccc(C(F)(F)F)n3)C2)C1=O` (configuration not stated), which cytotoxicity at 70.5 h is on record?
Answer: -6.46%

Question: Which cytotoxicity at 70.5 h does the source give for `CC(C)C(=O)N1CCN(C(=O)c2cc(Cl)no2)[C@H]2CS(=O)(=O)C[C@H]21` here?
Answer: -2.12%

Question: With `CC(C)=CCN1CCN(C(=O)c2cc(C)n[nH]2)[C@H]2CS(=O)(=O)C[C@H]21` as the compound, how does the cytotoxicity at 70.5 h read?
Answer: 0.726%

Question: For `O=C(CCc1cc2n(n1)CCCNC2)NCCCSC1CCCCC1`, which cytotoxicity at 70.5 h is on record?
Answer: -8.87%

Question: Which cytotoxicity at 70.5 h does the source give for `O=C(c1cnc(C2CC2)nc1)N1CCC(N2CCC(O)CC2)CC1` here?
Answer: 14.2%

Question: Which cytotoxicity at 70.5 h does the source give for `O=C(CN1CCC(c2ccccc2)CC1)NCc1cc2n(n1)CCNC2` here?
Answer: -10.6%

Question: With `CSc1cccc(CN2CCC(CCC(=O)Nc3ccccc3)CC2)c1` as the compound, how does the cytotoxicity at 70.5 h read?
Answer: -8.78%

Question: With `Cn1ccc(NC(=O)CN2C[C@H]3CC[C@@H]2CN(Cc2ccccn2)C3)n1` as the compound, how does the cytotoxicity at 70.5 h read?
Answer: -3.7%

Question: For `CCCc1nnc2sc(C3CCN(C4CCN(C)CC4)CC3)nn12`, which cytotoxicity at 70.5 h is on record?
Answer: -12.7%

Question: With `CN(C)C(C(=O)NCCSc1ncn[nH]1)c1cccc(F)c1` (configuration not stated) as the compound, how does the cytotoxicity at 70.5 h read?
Answer: 28.8%

Question: With `CN1CSC[C@H]1C(=O)N1CCN(Cc2cccc(F)c2)CC1` as the compound, how does the cytotoxicity at 70.5 h read?
Answer: 8.84%

Question: Which cytotoxicity at 70.5 h does the source give for `CN(C)C(=O)N1C[C@@H]2CC[C@H](C1)N(C(=O)c1c(Cl)cccc1Cl)C2` here?
Answer: -13.7%

Question: With `CC(=O)NCC(=O)N1CCCC2(CCC(=O)N(CCc3c[nH]cn3)C2)C1` (configuration not stated) as the compound, how does the cytotoxicity at 70.5 h read?
Answer: 10.1%

Question: Which cytotoxicity at 70.5 h does the source give for `CC1(C)[C@H]2CC=C(CN3CCCn4nc(CCC(=O)O)cc4C3)[C@@H]1C2` here?
Answer: -14.3%

Question: For `Cc1ncsc1CCN(C)C(=O)C(c1cccnc1)N1CCOCC1` (configuration not stated), which cytotoxicity at 70.5 h is on record?
Answer: -5.13%

Question: For `CCCN1CCN(Cc2nc3ccccc3[nH]2)[C@H]2CS(=O)(=O)C[C@H]21`, which cytotoxicity at 70.5 h is on record?
Answer: -3.06%

Question: With `CCn1ccnc1CN(C)Cc1nc(Cc2ccccc2Cl)no1` as the compound, how does the cytotoxicity at 70.5 h read?
Answer: 0.631%

Question: Which cytotoxicity at 70.5 h does the source give for `Cn1c(Cn2ccnc2)nnc1C1CCN(C(=O)c2cccnc2)CC1` here?
Answer: -10.4%

Question: Which cytotoxicity at 70.5 h does the source give for `CCC(CO)N(Cc1ccccn1)Cc1c[nH]nc1-c1ccc(F)cc1` (configuration not stated) here?
Answer: -6.02%

Question: Which cytotoxicity at 70.5 h does the source give for `O=C(Cn1cccn1)N1CCC(Cn2cc(-c3ccsc3)nn2)CC1` here?
Answer: -10.6%

Question: With `CCc1nc(CCn2ccnc2-c2nccn2C)no1` as the compound, how does the cytotoxicity at 70.5 h read?
Answer: -7.8%

Question: Which cytotoxicity at 70.5 h does the source give for `OCC1CCCN(c2ncnc3c2Cc2ccccc2OC3)C1` (configuration not stated) here?
Answer: -5.22%

Question: For `Cc1ncsc1CCC(=O)NC1CCN(c2ncccc2C#N)CC1`, which cytotoxicity at 70.5 h is on record?
Answer: -13.1%

Question: With `COCc1noc(-c2ccc(N3CCCCC3COC)nc2)n1` (configuration not stated) as the compound, how does the cytotoxicity at 70.5 h read?
Answer: -11.8%

Question: With `FC(F)(F)c1cccc(OC2CCN(Cc3ccccn3)CC2)c1` as the compound, how does the cytotoxicity at 70.5 h read?
Answer: -0.484%

Question: For `CCc1ncc(-c2cn(CCSc3ncn[nH]3)nn2)cn1`, which cytotoxicity at 70.5 h is on record?
Answer: -11.1%

Question: Which cytotoxicity at 70.5 h does the source give for `COc1ccc(NC(=O)c2cccc(CN3CCCC3C)c2)cc1OC` (configuration not stated) here?
Answer: -2.34%

Question: With `COc1ccccc1C(=O)C1CCCN(c2cc(C#N)ccn2)C1` (configuration not stated) as the compound, how does the cytotoxicity at 70.5 h read?
Answer: -1.63%

Question: Which cytotoxicity at 70.5 h does the source give for `COCc1noc(-c2ccc(N3CCCC3c3nccs3)nc2)n1` (configuration not stated) here?
Answer: 12%

Question: With `O=C1N(c2ccsc2)CCC12CCCN(CC1CC1)C2` (configuration not stated) as the compound, how does the cytotoxicity at 70.5 h read?
Answer: -4.66%

Question: Which cytotoxicity at 70.5 h does the source give for `CNC(=O)[C@H]1C[C@@H]2CCN(CCc3ccccc3)C[C@@H]2O1` here?
Answer: -4.11%

Question: Which cytotoxicity at 70.5 h does the source give for `O=C(NC[C@]12COC[C@H]1CN(CC1CCOCC1)C2)c1ccco1` here?
Answer: -3.33%

Question: Which cytotoxicity at 70.5 h does the source give for `Cc1ccsc1CN1C[C@@H]2COC[C@]2(CNC(=O)c2ccco2)C1` here?
Answer: -6.31%

Question: Which cytotoxicity at 70.5 h does the source give for `O=C(c1ccsc1)N1CCC2(CC1)COCCN(Cc1ccncc1)C2` here?
Answer: -7.46%

Question: Which cytotoxicity at 70.5 h does the source give for `O=C(NC[C@]12COC[C@H]1CN(Cc1ccncc1)C2)c1ccno1` here?
Answer: -7.21%
